These results are taken from PubChem BioAssay (NCI).

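In this assay, cells in 96-well plates receive the compound at five concentrations for 48 hours. Endpoints are linearly interpolated between the surrounding concentrations. The concentration for 50% growth inhibition is given as GI50. TGI marks complete inhibition of growth.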 A value given as a limit tells only on which side of the number the result lay.

Test systems include M19-MEL melanoma; UACC-257 melanoma; SF-295 CNS; LXFL 529 NSCLC; K-562 leukemia; SK-MEL-5 melanoma; SN12C renal; UACC-62 melanoma; A549 NSCLC; HL-60(TB) leukemia.
Holding throughout (assay): inhibition of tumour cell growth, NCI panel, 48 h

Take `COc1ccc2nc3cc(Cl)ccc3c(SCC(=O)Nc3ccccc3-c3ccccc3NC(=O)CSc3c4ccc(Cl)cc4nc4ccc(OC)cc34)c2c1`: the TGI with M19-MEL melanoma, with UACC-257 melanoma, in the assay on SF-295 CNS, in the assay on LXFL 529 NSCLC, in the assay with K-562 leukemia and with SK-MEL-5 melanoma was greater than 100 µM throughout. Moreover, the TGI in the assay on SN12C renal, in the assay with UACC-62 melanoma and in the assay on A549 NSCLC was greater than 100 µM throughout.
For `O=C(N/C(=C\c1ccc(/C=C(\NC(=O)c2ccccc2)c2nc3ccccc3[nH]2)cc1)c1nc2ccccc2[nH]1)c1ccccc1`, the TGI with M19-MEL melanoma, with UACC-257 melanoma, with SF-295 CNS, in the assay on LXFL 529 NSCLC, in the assay on K-562 leukemia and in the assay on SK-MEL-5 melanoma was greater than 100 µM in each case. Further, the TGI in the assay on SN12C renal, in the assay on UACC-62 melanoma and with A549 NSCLC was greater than 100 µM throughout.
As to `CCc1cccc(C)c1NC(=O)C1=C(C)NC(C)=C(C(=O)Nc2c(C)cccc2CC)C1c1ccc2c(c1)OCO2`, the TGI was 45.6 µM with M19-MEL melanoma; 46.3 µM in the assay on UACC-257 melanoma; 57.1 µM in the assay with HL-60(TB) leukemia; 43.7 µM with SF-295 CNS; 39.9 µM in the assay with LXFL 529 NSCLC; 92.3 µM in the assay on K-562 leukemia. Further, the TGI in the assay on SK-MEL-5 melanoma is 31.9 µM; in the assay on SN12C renal, 42.6 µM; with A549 NSCLC, 43.6 µM.
Turning to `CNC(=O)OCc1c2ccncc2c(C)c2c1[nH]c1ccc(OC)cc12`, the TGI is 1.68 µM with M19-MEL melanoma; 0.623 µM in the assay on HL-60(TB) leukemia; greater than 100 µM with SF-295 CNS; 0.37 µM in the assay with LXFL 529 NSCLC; 2.48 µM in the assay on K-562 leukemia; greater than 100 µM in the assay on SN12C renal. Moreover, the TGI in the assay with UACC-62 melanoma is 0.454 µM; with A549 NSCLC it was greater than 100 µM.
For the molecule `COc1cccc(NC(=O)CC(=O)N2N=C(n3ccc4ccccc43)CC2c2ccccc2)c1` (centres undefined), the TGI in the assay on M19-MEL melanoma, in the assay with UACC-257 melanoma, with HL-60(TB) leukemia, with SF-295 CNS, in the assay with LXFL 529 NSCLC and in the assay with K-562 leukemia was greater than 100 µM each time. The TGI in the assay with SN12C renal, in the assay on UACC-62 melanoma and in the assay on A549 NSCLC was greater than 100 µM in each case.
Take `CCOc1ccc(NC(=O)C(=O)C(C(=O)c2ccc3ccccc3c2)C2OC(=O)c3ccccc32)cc1` (centres undefined): the TGI was 34.6 µM in the assay with M19-MEL melanoma; 81.9 µM in the assay with UACC-257 melanoma; 37.4 µM in the assay on LXFL 529 NSCLC; greater than 100 µM in the assay with K-562 leukemia; 31.9 µM in the assay with SK-MEL-5 melanoma; 44 µM with SN12C renal. In addition, the TGI in the assay with UACC-62 melanoma was 27.2 µM; in the assay on A549 NSCLC it was greater than 100 µM.
For the molecule `CC(=O)[CH-]C(=O)c1ccccc1.CC(=O)[CH-]C(=O)c1ccccc1.CC(=O)[CH-]C(=O)c1ccccc1.[In+3]`, the GI50 in the assay with M19-MEL melanoma was 28.8 µM; with UACC-257 melanoma, 46.2 µM; in the assay on HL-60(TB) leukemia, 14.5 µM; with SF-295 CNS, 24.2 µM; with LXFL 529 NSCLC it was 25.5 µM; in the assay on K-562 leukemia, 31 µM. In addition, the results for the GI50 with SN12C renal, in the assay on UACC-62 melanoma and in the assay with A549 NSCLC were 21.2 µM, 32.9 µM and 48.8 µM, respectively. Further, the TGI in the assay on M19-MEL melanoma was greater than 100 µM; in the assay with UACC-257 melanoma, greater than 100 µM; with HL-60(TB) leukemia, 41.2 µM; in the assay on SF-295 CNS it was 93.5 µM; in the assay on LXFL 529 NSCLC, greater than 100 µM; in the assay with K-562 leukemia it was greater than 100 µM. Besides, the TGI in the assay with SN12C renal, with UACC-62 melanoma and with A549 NSCLC was greater than 100 µM throughout.
Consider `CCOC(=O)/C(O)=C(/C(=O)OC)c1ccc(Cl)cc1`, for which the TGI in the assay on M19-MEL melanoma, in the assay with UACC-257 melanoma, with SF-295 CNS, in the assay with LXFL 529 NSCLC, in the assay on K-562 leukemia and in the assay on SK-MEL-5 melanoma was greater than 100 µM throughout. Besides, the TGI in the assay on SN12C renal, with UACC-62 melanoma and with A549 NSCLC was greater than 100 µM throughout.
As for `CCN(CC)c1oc(N(CC)CC)c(C(=O)Nc2ccccn2)c(=O)c1C(C)=O`, the TGI with M19-MEL melanoma, in the assay with LXFL 529 NSCLC, in the assay with K-562 leukemia, with SK-MEL-5 melanoma, with SN12C renal and in the assay with UACC-62 melanoma was greater than 100 µM each time. Also, in the assay with A549 NSCLC, the TGI was greater than 100 µM.
Consider `COc1ccc(CC2(Cc3ccc(OC)cc3)CCOC2=O)cc1`, for which the TGI with M19-MEL melanoma, with UACC-257 melanoma, in the assay on HL-60(TB) leukemia, in the assay with SF-295 CNS, in the assay on LXFL 529 NSCLC and in the assay with K-562 leukemia was greater than 100 µM throughout. In addition, the TGI in the assay on SN12C renal, in the assay with UACC-62 melanoma and with A549 NSCLC was greater than 100 µM in each case.
Consider `O=C(NC(=Nc1ccccc1)SCCSC(=Nc1ccccc1)NC(=O)c1cccs1)c1cccs1`, for which the TGI was greater than 100 µM in the assay with M19-MEL melanoma; greater than 100 µM in the assay with UACC-257 melanoma; greater than 100 µM in the assay on SF-295 CNS; greater than 100 µM in the assay on LXFL 529 NSCLC; greater than 100 µM with K-562 leukemia; 74 µM in the assay with SK-MEL-5 melanoma. For the same molecule, the TGI in the assay with SN12C renal, in the assay with UACC-62 melanoma and in the assay with A549 NSCLC was greater than 100 µM in each case.
